Columns and labels:
Type in all cases: in vivo
CBA mice on HFD = assay: Crossover HFD / test material-HFD (2 mg/g) at housing and thermoneutral conditions
Procedure: 14 weeks old CBA mice were randomised into HFD and test material-HFD (2 mg/g) groups for 2 weeks while housed at 22° C. The two groups were then switched from HFD to test material-HFD and vice versa for an additional 4.5 weeks before transferred from 22° C. to 30° C. (thermoneutrality). After one week at 30° C. the diet was switched again and one week after the switch core body temperature were determined.
Food intake was measured weekly by giving each cage 200 g pellet. After one week, the amount of pellets consumed were calculated and adjusted according to the number of animals/cage. Body weight was measured weekly. Body composition was assessed using EchoMRI.

[1] = test system: diet-induced obese C57BL/6J mice; assay: Combination therapy AMPK activator + SGLT2 inhibitor in DIO mice; conditions: 2 weeks oral gavage, Compound 1 75 mg/kg, canagliflozin 10 mg/kg
Procedure: Male C57BL/6J mice, 8 weeks of age were purchased from Jackson, Charles River Laboratories, Inc. (Germany). All animals were housed in the Umeå University animal facility (Umeå Centre for Comparative Biology; UCCB) with a 12:12 hour light-dark cycle (lights on at 6 a.m.) and a constant temperature of 21° C. The animals were ear marked with a unique identification number, and groups of 5 mice were housed in transparent polycarbonate cages that comply with the requirements of the Code of Practice for the housing and care of animals used in scientific procedures. Wood chips were used as bedding material and environmental enrichment was provided. Animals were allowed to acclimate for 15 weeks to their new environment before the onset of the study. The animals were allowed ad libitum access to tap water throughout the accommodation and study period. During the acclimation period, the animals were allowed a standard pelleted diet (CRM (E) Rodent, Special Diets Services, Scanbur BK, Sweden). At the start of the study, the standard diet was changed to a very high fat diet (vHFD; Cat. No. D12492, Research Diets, Inc.) and this diet was kept throughout the whole study period. All of the procedures were approved by the Local Ethics Review Committee on Animal Experiments, Umeå Region.
23 Weeks old male C57BL/6J mice were fed HFD to promote diet-induced obesity (DIO) and administered once daily by oral gavage; vehicle (phosphate buffer pH 7.3, 2% w/v methyl cellulose; n=11), canagliflozin 10 mg/kg (n=14), Compound 1 at 75 mg/kg (n=14) and the combination of canagliflozin 10 mg/kg and Compound 1 at […] (n=15). After 2 weeks of treatment, fasted (6 hour) blood glucose and plasma insulin levels (determined in tail vein blood samples) were analysed. Food intake and weight were monitored throughout the study.
Blood samples were collected from the tail vein in Potassium-EDTA vials and plasma was separated by centrifugation and stored at −20° C. until assayed. Plasma insulin was determined with mouse insulin ELISA (Ultra Sensitive Mouse insulin ELISA Kit). Glucose concentrations were analysed in tail vein blood using a OneTouch® Ultra®2 Blood Glucose Meter (LifeScan, Inc).
Results shown in the figures are expressed as means±standard error of the mean (S.E.M.) for the number of animals per group. Statistical significance between the control group and the three treatment groups were analysed by Student's t-test, with P<0.05 considered statistically significant.

[2] = test system: CBA mice on HFD (DIO mice); assay: CBA mice on test material-HFD (0.4, 0.8, 2 mg/g) for 7 w
Procedure: 12 weeks old CBA mice were randomised into a HFD and three test material-HFD groups (0.4 mg/g, 0.8 mg/g, and 2 mg/g) for 7 weeks. 16-17 weeks old CBA mice on regular diet was used as controls where indicated.
Animals were housed at 12:12 hour light/dark cycle in a temperature/humidity controlled (22° C./50% humidity) room and ad libitum feeding with either standard chow (Special Diet Service #801730), high fat diet (HFD) (Research diets, Inc. #D12492) or HFD (Research diets, Inc. #D12492) custom formulated with test material at 2 mg/g test material, 0.8 mg/g test material and 0.4 mg/g test material, respectively.
All cell lines were lysed in 0.1 M Tris-HCl, pH 6.8, 2% SDS, 10 mM sodium fluoride (SIGMA #S7920), 10 mM β-glycerophosphate (SIGMA #G6376), and 1 mM sodium vanadate (SIGMA #72060) and supernatant collected after 1 minute at 14,000 rpm. Islets (human and mouse) were lysed in 0.1 M Tris-HCl, pH 6.8, 2% SDS, protease inhibitor (Roche #04 693 124 001) and phosphatase inhibitor (Roche #04 906 837 001). Right calf muscle, heart, iWAT, and interscapular BAT was crushed in a pestle using liquid nitrogen and homogenised in ice cold RIPA buffer (150 mM sodium chloride (SIGMA #S7653), 1.0% NP40 (USB), 0.5% sodium deoxycholate (SIGMA #D6750), 0.1% SDS, 50 mM Tris pH 8.0, 20 mM sodium pyrophosphate (SIGMA #71515), 10 mM sodium fluoride, 10 mM β-glycerolphosphate, 1 mM sodium vanadate and protease inhibitor cocktail (Roche #04693124001), 1 tablet/10 ml lysis buffer). The supernatant was collected after 2 min at 14,000 rpm. This procedure was repeated until all fat was eliminated and the supernatant was clear, at 4° C. Samples were analysed on 4-15% polyacrylamide gels. Values were normalised toward AMPKα, β-Actin, GAPDH or the respective non-phosphorylated counterpart. […]

[3] = 0.4, 0.8 and 2 mg/g in HFD, 6 w

## O=C(Nc1nc(=O)n(Cc2ccc(Cl)cc2)s1)c1ccc(Cl)cc1 [test material, 4-chloro-N-[2-[(4-chlorophenyl)methyl]-3-oxo-1,2,4-thiadiazol-5-yl]benzamide]
CBA mice on HFD; 2 mg/g in HFD, day 1-14, housing temperature
  body weight gain: gained almost no weight
CBA mice on HFD; 30° C. from day 49
  body weight at thermoneutrality, continued on test material-HFD: still averted weight gain
CBA mice on HFD; 30° C. housing
  increase in core temperature vs HFD (nonsignificant): 0.2 °C
CBA mice on HFD; 30° C. housing, one week after switch, n=5
  core temperature: 37.9 °C
CBA mice on HFD; 30° C., switch at day 57
  body weight after switch from HFD to test material-HFD at thermoneutrality: rapidly started to lose weight
CBA mice on HFD; switch at day 15, housing temperature
  body weight after switch from HFD to test material-HFD: rapidly started to lose weight
[1]
  HOMA-IR: statistically significant (***) reduction
[1]; 6 hour fast
  fasted plasma insulin: statistically significant (***) reduction
[2]; 2 mg/g in HFD
  expression of Cd36 and Cpt1b in BAT: significantly increased the expression of Cd36
  expression of Fas, Scd1 and Acc1 in BAT: potently reduced the expression
[2]; 2 mg/g in HFD, vs HFD
  weights of BAT pads: reduced
  weights of iWAT and eWAT fat pads: markedly lower weights
[2]; [3]
  dysglycemia (fasted blood glucose): potently prevented
  hyperinsulinemia (fasted insulin): potently prevented
  insulin resistance (HOMA-IR): potently prevented
[2]; 0.4, 0.8 and 2 mg/g in HFD, 7 w
  pAMPK in calf muscle: dose-dependently increased pAMPK
[2]; 0.8 or 2 mg/g in HFD, 7 w
  heart glycogen content: reduced in a dose-dependent manner
  heart weight/tibia length: did not cause an increase in heart weight/tibia length
  pAMPK levels in the heart: significantly increased pAMPK levels in the heart
[2]; DIO mice
  Cpt1b mRNA levels in liver: dose-dependently increased Cpt1b
  hepatic steatosis: prevented and reduced hepatic steatosis
[2]; DIO mice, dose-dependent
  Acc2, Fas and Scd1 mRNA levels in liver: decreased Acc2, Fas, and Scd1 mRNA levels
[2]; slightly, dose-dependent
  UCP1 expression in BAT and iWAT: reduced UCP1 expression
[2]; test material-HFD 7 w
  Atgl mRNA levels in iWAT: increased both p-S406 ATGL levels and Atgl mRNA levels
  p-S406 ATGL levels in iWAT: increased both p-S406 ATGL levels and Atgl mRNA levels

Reference: patent US20220023269A1, “Methods Of Treating Diabetes In Severe Insulin-Resistant Diabetic Subjects” (Balticgruppen Bio AB, priority 2018, published 2022)
